{
  "source": "patent US8993622B2",
  "about": "“Antiviral compounds” (Eirium AB, priority 2010, dated 2015)",
  "system": "HSV-1",
  "experiment": "qPCR of herpes simplex 1 replication in GMK cells",
  "format": "cell-based, Herpes simplex virus 1",
  "settings": "24 h",
  "description": "Same procedure as for qPCR for adenovirus quantification was followed with the exception of a few steps. Namely, 7×10^4 green monkey kidney (GMK) cells were seeded in 24-well plate the day before infection. Seventy-five virus particles of HSV-1 (stock 1351-95 P13) were added per cell. After 24 h incubation with the compound A02 at 37° C. in 5% CO2, the cells were harvested and DNA was prepared from 200 μL of the total 500 μL well-volume to include the DNA of possible released HSV-1 particles. The primers used in the qPCR assay were; Rune 1 (sense—position 137680-137697 in HSV-1 genome) (5′-GGC CTG GCT ATC CGG AGA-3′—SEQ ID NO:6) and Rune 2 (antisense—position 137742-137726 in HSV-1 genome) (5′-GCG CAG AGA CAT CGC GA-3′—SEQ ID NO:7), the final concentration in the reaction mixture of the primers were 300 nM. As in the adenovirus quantification a FAM-TAMRA labeled probe was used; Rune 3 (5′-CAGCACACGACTTGGCGTTCTGTGT-3′—SEQ ID NO:8) to a final concentration of 175 nM in the reaction mixture.",
  "data": [
    {"smiles": "O=C(Nc1ccccc1C(=O)Nc1ccccc1C(=O)O)c1ccccc1", "note": "[Compound A02, 2-[[2-(Benzoylamino)benzoyl]amino]-benzoic acid]", "values": [
      {"measurement": "inhibitory effect on herpes simplex 1 replication", "value": "about the same as observed with the representatives of all the six human adenovirus species"}
    ]}
  ]
}
